Source: ChEMBL document CHEMBL1201862, “PubChem BioAssay data set” (2004)
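Exposure lasted 48 hours, with cells grown in 96-well plates and compounds tested at five concentrations. GI50 is the concentration that inhibits growth by half.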 Activity calls are given as the source filed them. No stated cut-off is given here; in the data, active = GI50 up to about 1.1 µM and inactive = higher.

Tests used:
Experiment in all cases: growth of human tumour cells (NCI), 48 h
CCRF-CEM = test system: CCRF-CEM
MDA-N = test system: MDA-N
SF-268 = test system: SF-268
M14 = test system: M14
RPMI-8226 = test system: RPMI-8226
LOX IMVI = test system: LOX IMVI
SW-620 = test system: SW-620
A549 = test system: A549
U-251 = test system: U-251
SK-OV-3 = test system: SK-OV-3
KM12 = test system: KM12
IGROV-1 = test system: IGROV-1
NCI-H23 = test system: NCI-H23
SK-MEL-2 = test system: SK-MEL-2
MDA-MB-231 = test system: MDA-MB-231
T47D = test system: T47D
OVCAR-3 = test system: OVCAR-3
SR = test system: SR
UACC-62 = test system: UACC-62
OVCAR-4 = test system: OVCAR-4
DU-145 = test system: DU-145
BT-549 = test system: BT-549
OVCAR-8 = test system: OVCAR-8
NCI-H460 = test system: NCI-H460
NCI-H522 = test system: NCI-H522
NCI/ADR-RES = test system: NCI/ADR-RES
RXF 393 = test system: RXF 393
HL-60 = test system: HL-60
HT-29 = test system: HT-29
UACC-257 = test system: UACC-257
MOLT-4 = test system: MOLT-4
786-0 = test system: 786-0
TK-10 = test system: TK-10
SK-MEL-28 = test system: SK-MEL-28
SNB-19 = test system: SNB-19
K562 = test system: K562
CAKI-1 = test system: CAKI-1
HCT-116 = test system: HCT-116
HCT-15 = test system: HCT-15
MCF7 = test system: MCF7
SF-295 = test system: SF-295
HOP-92 = test system: HOP-92
SF-539 = test system: SF-539
MDA-MB-435 = test system: MDA-MB-435
Hs-578T = test system: Hs-578T
PC-3 = test system: PC-3
OVCAR-5 = test system: OVCAR-5
SNB-75 = test system: SNB-75
EKVX = test system: EKVX
SK-MEL-5 = test system: SK-MEL-5
HCC 2998 = test system: HCC 2998
COLO 205 = test system: COLO 205
A498 = test system: A498
NCI-H226 = test system: NCI-H226
ACHN = test system: ACHN
SN12C = test system: SN12C
HOP-62 = test system: HOP-62

C=C1C(=O)OC2/C=C(/C)C(OC(C)=O)C/C=C(\C)C(OC(=O)C3(C)OC3C)C(O)C12 (configuration not stated)
GI50 (CCRF-CEM): 34 µM (inactive) | GI50 (MDA-N): > 100 µM (inactive) | GI50 (SF-268): > 100 µM (inactive) | GI50 (M14): > 100 µM (inactive) | GI50 (RPMI-8226): 43.9 µM (inactive) | GI50 (LOX IMVI): 30.8 µM (inactive) | GI50 (SW-620): 42.4 µM (inactive) | GI50 (A549): > 100 µM (inactive) | GI50 (U-251): > 100 µM (inactive) | GI50 (SK-OV-3): > 100 µM (inactive) | GI50 (KM12): > 100 µM (inactive) | GI50 (IGROV-1): > 100 µM (inactive) | GI50 (NCI-H23): > 100 µM (inactive) | GI50 (SK-MEL-2): > 100 µM (inactive) | GI50 (MDA-MB-231): > 100 µM (inactive) | GI50 (T47D): > 100 µM (inactive) | GI50 (OVCAR-3): > 100 µM (inactive) | GI50 (SR): 39.4 µM (inactive) | GI50 (UACC-62): > 100 µM (inactive) | GI50 (OVCAR-4): > 100 µM (inactive) | GI50 (DU-145): > 100 µM (inactive) | GI50 (BT-549): 65.6 µM (inactive) | GI50 (OVCAR-8): > 100 µM (inactive) | GI50 (NCI-H460): > 100 µM (inactive) | GI50 (NCI-H522): 14.9 µM (inactive) | GI50 (NCI/ADR-RES): > 100 µM (inactive) | GI50 (RXF 393): > 100 µM (inactive) | GI50 (HL-60): 30.3 µM (inactive) | GI50 (HT-29): > 100 µM (inactive) | GI50 (UACC-257): > 100 µM (inactive) | GI50 (MOLT-4): 36.9 µM (inactive) | GI50 (786-0): 47.4 µM (inactive) | GI50 (TK-10): > 100 µM (inactive) | GI50 (SK-MEL-28): 71 µM (inactive) | GI50 (SNB-19): > 100 µM (inactive) | GI50 (K562): 40.8 µM (inactive) | GI50 (CAKI-1): 65.8 µM (inactive) | GI50 (HCT-116): 39.7 µM (inactive) | GI50 (HCT-15): 53.3 µM | GI50 (MCF7): 51.1 µM (inactive) | GI50 (SF-295): > 100 µM (inactive) | GI50 (HOP-92): > 100 µM (inactive) | GI50 (SF-539): > 100 µM (inactive) | GI50 (MDA-MB-435): > 100 µM (inactive) | GI50 (Hs-578T): > 100 µM (inactive) | GI50 (PC-3): > 100 µM (inactive) | GI50 (OVCAR-5): > 100 µM (inactive) | GI50 (SNB-75): 97.7 µM (inactive) | GI50 (EKVX): > 100 µM (inactive) | GI50 (SK-MEL-5): > 100 µM (inactive) | GI50 (HCC 2998): > 100 µM (inactive) | GI50 (COLO 205): 55.7 µM (inactive) | GI50 (A498): > 100 µM (inactive) | GI50 (NCI-H226): > 100 µM (inactive) | GI50 (ACHN): > 100 µM (inactive) | GI50 (SN12C): > 100 µM (inactive) | GI50 (HOP-62): > 100 µM (inactive)
